Patent US12697366B2, “Thermogenic compositions and methods” (Ohio State Innovation Foundation, priority 2016, dated 2026)

Experiments:
[1] = system: omental iAb preadipocytes; test: FD-glucose uptake in human omental iAb preadipocytes; format: cell-based; conditions: for glucose uptake in preadipocytes from lean insulin-sensitive patients: EREG vs insulin; for glucose uptake in preadipocytes from an insulin resistant patient: different doses of EREG, insulin 10 μg/ml
Method: FIGS. 16A to 16M show EREG improves glucose uptake in ob/ob mice and in mouse and human preadipocytes. FIG. 16A: GTT was performed on fasting Veh (open circles) and EREG-treated (closed circles) ob/ob (N=5/group, Study 4) mice (12 hrs) using a single 25% dextrose injection (0.004 mL/g body weight). Asterisks indicate significant differences between Veh- and EREG-treated groups. FIG. 16B: ITT was performed in the same mice groups. […]: Fluorescently-labelled (FD) glucose uptake was measured in mouse […] preadipocytes. FIG. 16C: Preadipocytes were treated with vehicle, insulin (ins), EREG and forskolin for 30 mins. […] Asterisks represent significant differences compared to vehicle (P<0.05). FIG. 16D: Dose dependent increase in FD-glucose uptake by 3T3-L1 preadipocytes stimulated with different EREG concentrations. Data are shown as a percent of Veh-treated control. FIGS. 16E to 16G: FD-glucose uptake was measured in omental iAb preadipocytes isolated from lean (FIG. 16E) and obese insulin-resistant (FIG. 16F, 16G) patients in the presence of insulin, EREG, and forskolin. […] Omental preadipocytes from obese insulin resistant […] (FIG. 16G) and […] (FIG. 16K) were also stimulated with and without EREG in presence and absence of EGFR and MAPK inhibitors for 30 mins. Data were calculated as a percent to non-stimulated control (Veh, 100%, dash line) and shown as a mean±SD. Asterisks represent significant differences compared to vehicle (P<0.05), Mann-Whitney U test. FIG. 16H: FD-glucose uptake was measured in mouse 3T3-L1 preadipocytes with or without EREG (50 ng/mL) and inhibitors of MAPK and PI3K (MAPK-I, 10 uM, and PI3K-I, 200 nM). Data (mean±SD) are shown as percent to control (Veh 100%). […] P<0.05 indicate significant differences between EREG-treated and PI3K-I/EREG treated groups. Asterisks indicate significant differences between vehicle control and treatments with inhibitors. FIG. 16I: Phosphorylated (p-Akt) and non-phosphorylated (total) Akt protein levels were measured in mouse 3T3-L1 preadipocytes stimulated with or without EREG (50 ng/ml), PI3K-I (200 nM) for 20 mins by western blot and quantified by ImageJ Software. […] Asterisks represent significant differences compared to vehicle (P<0.05). FIG. 16J: Plasma insulin levels in fasting Veh and EREG-treated ob/ob mice measured by ELISA. FIG. 16L: Phosphorylated Akt protein levels were measured by western blot in human preadipocytes from an obese person stimulated with or without EREG (50 ng/ml) and PI3K-I (200 nM) for 20 mins. […] Asterisks represent significant differences compared to vehicle (P<0.05). Mann-Whitney U test. FIG. 16M: Schematic depicting two different pathways involved in EREG-mediated induction of thermogenesis and glucose uptake. EREG acts via MAPK to induce leptin secretion and also stimulates hormone sensitive lipase (HSL). HSL hydrolyzes free fatty acids activating PPARα activation. EGF, EGFR inhibition, or MAPK inhibition streamlines EREG-dependent PI3K/Akt activation that increase glucose uptake.
Human stromal vascular fraction (SVF) was isolated from iAb (omental) fat of lean and obese men and women as described before and maintained in preadipocyte culture media (Lonza, Allendale, NJ). Differentiation was carried out for 9-10 days using preadipocyte culture media supplemented with insulin, dexamethasone, IBMX and indomethacin (Lonza, Allendale, NJ).
Glucose uptake assay was performed using glucose uptake cell-based assay kit (Cayman Chemical, Ann Arbor, MI). 3T3-L1 or human preadipocytes were cultured at a density of 5×10^4 per well into a 96-well plate (n=7) in high glucose media and grown overnight. Old cell culture medium was removed the next day and washed with PBS to remove residual glucose. Supplied 2-deoxy-2-[(7-nitro-2,1,3-benzoxadiazol-4-yl)amino]-D-glucose) (2-NBDG) was diluted to 150 μg/mL in DMEM medium without glucose, phenol red, L-glutamine, sodium pyruvate, and HEPES (Life technologies, Grand Island, New York). […]

[2] = system: iAb (omental) fat explants; test: LEP release from iAb (omental) fat explants of an obese patient (ELISA); format: cell-based, human; conditions: different EREG concentrations, 2 h
Method: FIGS. 14A to 14N show EREG induces expression of thermogenic and PPARα-target genes, suppresses inflammatory genes, and stimulates leptin secretion. FIGS. 14A to 14H and 14L: Markers for thermogenesis, adipogenesis, and inflammatory genes were analyzed using homogenates from whole iAb fat pads isolated from Veh- (white bars) and EREG-treated (black bars) DIO mice (Study 3). Gene expression was quantified using a customized NanoString panel. Data represent mean±SD, n.s.,—non-significant. FIG. 14I: LEP was measured in plasma in the same mice by ELISA. Data (mean±SD) are shown as percent to control (Veh, 100%) and is indicated as a dashed line. FIG. 14J: LEP release after stimulation with different concentrations of recombinant human EREGs was measured in explants of iAb (omental) tissue obtained from an obese insulin resistant patient. FIG. 14K: LEP release after stimulation of explants from same donor with and without EREG (50 ng/mL) in the presence and absence of insulin (Ins, 10 μg/mL), MAPK-I, EGFR-I, PI3K-I. Inhibitors concentrations were described in FIG. 1. FIG. 14M: LEP release after stimulation of iAb fat explants (2 h) from WT mice with different concentrations of recombinant mouse EREG. Experiment was repeated in three different WT mice. Data (mean±SD) are shown as percent to control (Veh, 100%). FIG. 14N: LEP release following stimulation of iAb fat explants (2 h) from WT mice with inhibitors of EGFR (10 μM) and MAPK (10 μM) in the presence or absence of EREG (50 ng/ml). Data (mean±SD) are shown as percent to control (Veh, 100%).
Abdominal fat tissue obtained from an obese patient was excised into 35 mg sections for stimulation with EREG. Explants were stimulated with EREG in DMEM containing 1% FBS for 2 h. Media was collected after 2 h, lyophilized and reconstituted in 120 μL deionized water for leptin detection using ELISA kit (Alpco, Salem, NH).

[3] = insulin resistant patient, EREG with EGFR inhibitor, 30 mins

## insulin: insulin (bovine or human)
[1]
  glucose uptake in preadipocytes from lean insulin-sensitive patients: induced similar glucose uptake
  glucose uptake in preadipocytes from an insulin resistant patient: not significant

## EREG: Epiregulin, member of the epidermal growth factor family; recombinant mouse or human protein
[1]
  glucose uptake in preadipocytes from lean insulin-sensitive patients: induced similar glucose uptake
  glucose uptake in preadipocytes from an insulin resistant patient: dose-dependent fashion
[1]; [3]
  glucose uptake with inhibition of EGFR, compared to insulin response (100%): 212%
  glucose uptake with inhibition of EGFR, compared to non-treated preadipocytes (100%): 268%
[2]
  release of LEP from iAb fat explants: dose dependent release
